# Laboratory results from publication PMC7279487, “Dual Target Ligands with 4-tert-Butylphenoxy Scaffold as Histamine H3 Receptor Antagonists and Monoamine Oxidase B Inhibitors” (International Journal of Molecular Sciences, 2020).
# Where a name gives a salt, the structure may show the parent alone.
# Legend:
# [1] = biological target: T1, human histamine H3 receptor (hH3R) (Homo sapiens, UniProt Q9Y5N1); assay: radioligand displacement binding assay, [3H]Nα-methylhistamine, HEK293 cells stably expressing hH3R; conditions: HEK293 cells stably expressing human H3R, mean (95% CI)
# T1 construct: expressed in transfected cells
# Protocol: [^3H]N^α-methylhistamine was used as a radioligand.
# The radioligand displacement binding assay was carried out in HEK-293 cells stably expressing the recombinant hH3R as described by Kottke et al. with slight modifications. […] Obtained data from at least three experiments (in at least duplicates) were analyzed with GraphPad Prism 6.1 (San Diego, CA, USA) using nonlinear regression (one-site competition on logarithmic scale), and Ki values were transformed from IC50 according to Cheng-Prusoff. Statistical analysis was performed on −log Ki values.
# hMAO B = biological target: T2, hMAO B (Homo sapiens, UniProt P27338); assay: hMAO B inhibition, fluorometric Amplex Red MAO assay; type: biochemical; conditions: percent of inhibition at 1 μM; mean of two independent experiments; read-out: MAO B (%Inh.)
# T2 construct: purchased Sigma Aldrich M7441
# T2 sequence (P27338 1-520): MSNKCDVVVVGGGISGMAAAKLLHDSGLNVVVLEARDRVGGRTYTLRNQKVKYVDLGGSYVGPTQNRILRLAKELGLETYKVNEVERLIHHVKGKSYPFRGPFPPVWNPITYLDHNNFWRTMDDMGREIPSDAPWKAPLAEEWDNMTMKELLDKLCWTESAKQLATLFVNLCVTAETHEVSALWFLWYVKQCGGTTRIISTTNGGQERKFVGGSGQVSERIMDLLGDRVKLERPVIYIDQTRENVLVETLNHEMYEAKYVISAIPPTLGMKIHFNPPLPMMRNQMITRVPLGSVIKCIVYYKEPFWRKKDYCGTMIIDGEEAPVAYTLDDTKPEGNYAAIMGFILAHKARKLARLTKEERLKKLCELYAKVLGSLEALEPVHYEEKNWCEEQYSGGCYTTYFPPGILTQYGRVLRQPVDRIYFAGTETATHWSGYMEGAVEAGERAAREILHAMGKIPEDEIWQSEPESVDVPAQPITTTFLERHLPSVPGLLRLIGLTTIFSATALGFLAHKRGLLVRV
# T1 sequence (Q9Y5N1 whole entry): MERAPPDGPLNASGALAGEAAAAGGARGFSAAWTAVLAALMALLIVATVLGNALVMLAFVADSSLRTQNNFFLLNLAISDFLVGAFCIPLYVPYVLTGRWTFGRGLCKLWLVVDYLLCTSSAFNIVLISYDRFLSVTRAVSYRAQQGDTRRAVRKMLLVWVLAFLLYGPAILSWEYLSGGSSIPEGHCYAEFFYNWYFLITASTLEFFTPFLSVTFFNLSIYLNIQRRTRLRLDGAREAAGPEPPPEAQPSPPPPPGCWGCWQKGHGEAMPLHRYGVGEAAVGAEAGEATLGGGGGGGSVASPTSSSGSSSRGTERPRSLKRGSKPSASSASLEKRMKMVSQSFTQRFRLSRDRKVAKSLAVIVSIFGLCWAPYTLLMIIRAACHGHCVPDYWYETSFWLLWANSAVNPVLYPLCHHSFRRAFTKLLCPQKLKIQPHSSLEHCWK
Structure (SMILES),Ki [1],inhibition at 1 µM (hMAO B),melting point
"CC1CCN(CCCCCOc2ccc(C(C)(C)C)cc2)CC1.O=C(O)C(=O)O [Compound 26, 1-(5-(4-tert-Butylphenoxy)pentyl)-4-methylpiperidine hydrogen oxalate]",531 nM,39%,167 to 170 °C
"CC1CC(C)CN(CCCCCOc2ccc(C(C)(C)C)cc2)C1.O=C(O)C(=O)O (stereo not drawn) [Compound 22, 1-(5-(4-tert-Butylphenoxy)pentyl)-3,5-dimethylpiperidine hydrogen oxalate]",2240 nM,41%,175 to 178 °C
"CC1CC(C)CN(CCCCOc2ccc(C(C)(C)C)cc2)C1.O=C(O)C(=O)O (stereo not drawn) [Compound 21, 1-(4-(4-tert-Butylphenoxy)butyl)-3,5-dimethylpiperidine hydrogen oxalate]",1380 nM,35%,170 to 172 °C
"CC1CCCN(CCCCCCOc2ccc(C(C)(C)C)cc2)C1.O=C(O)C(=O)O (stereo not drawn) [Compound 15, 1-(6-(4-tert-Butylphenoxy)hexyl)-3-methylpiperidine hydrogen oxalate]",351 nM,13%,140 to 142 °C
"CC(C)(C)c1ccc(OCCCCCCN2CCCCCC2)cc1.O=C(O)C(=O)O [Compound 31, 1-(6-(4-tert-Butylphenoxy)hexyl)-azepane hydrogen oxalate]",,23%,130 to 132 °C
"CC1(C)CCCN(CCCCOc2ccc(C(C)(C)C)cc2)C1.O=C(O)C(=O)O [Compound 17, 1-(4-(4-tert-Butylphenoxy)butyl)-3,3-dimethylpiperidine hydrogen oxalate]",3440 nM,38%,140 to 142 °C
"CC1CCCN(CCCCOc2ccc(C(C)(C)C)cc2)C1.O=C(O)C(=O)O (stereo not drawn) [Compound 13, 1-(4-(4-tert-Butylphenoxy)butyl)-3-methylpiperidine hydrogen oxalate]",102 nM,,148 to 150 °C
"CC1CC(C)CN(CCCCCCOc2ccc(C(C)(C)C)cc2)C1.O=C(O)C(=O)O (stereo not drawn) [Compound 23, 1-(6-(4-tert-Butylphenoxy)hexyl)-3,5-dimethylpiperidine hydrogen oxalate]",2080 nM,34%,143 to 145 °C
"CC1CCN(CCCCOc2ccc(C(C)(C)C)cc2)CC1 [Compound 25, 1-(4-(4-tert-Butylphenoxy)butyl)-4-methylpiperidine hydrogen oxalate]",400 nM,33%,
"CC1CCN(CCCCCCOc2ccc(C(C)(C)C)cc2)CC1.O=C(O)C(=O)O [Compound 27, 1-(6-(4-tert-Butylphenoxy)hexyl)-4-methylpiperidine hydrogen oxalate]",1350 nM,10%,136 to 139 °C
"CC1CCN(CCCOc2ccc(C(C)(C)C)cc2)CC1.O=C(O)C(=O)O [Compound 24, 1-(3-(4-tert-Butylphenoxy)propyl)-4-methylpiperidine hydrogen oxalate]",316 nM,37%,158 to 160 °C

# Other lines, results leading:
Ki [1],inhibition at 1 µM (hMAO B),melting point,Structure (SMILES)
324 nM,18%,151 to 153 °C,"CC(C)(C)c1ccc(OCCCCCN2CCCCCC2)cc1.O=C(O)C(=O)O [Compound 30, 1-(5-(4-tert-Butylphenoxy)pentyl)-azepane hydrogen oxalate]"
114 nM,33%,179 to 181 °C,"CC1CCCN(CCCCCOc2ccc(C(C)(C)C)cc2)C1.O=C(O)C(=O)O (stereo not drawn) [Compound 14, 1-(5-(4-tert-Butylphenoxy)pentyl)-3-methylpiperidine hydrogen oxalate]"
341 nM,37%,143 to 145 °C,"CC1CC(C)CN(CCCOc2ccc(C(C)(C)C)cc2)C1.O=C(O)C(=O)O (stereo not drawn) [Compound 20, 1-(3-(4-tert-Butylphenoxy)propyl)-3,5-dimethylpiperidine hydrogen oxalate]"
1560 nM,36%,96 to 99 °C,"CC1CCCCN1CCCCCOc1ccc(C(C)(C)C)cc1.O=C(O)C(=O)O (stereo not drawn) [Compound 11, 1-(5-(4-tert-Butylphenoxy)pentyl)-2-methylpiperidine hydrogen oxalate]"
225 nM,13%,156 to 158 °C,"CC(C)(C)c1ccc(OCCCCCCN2CCCCC2)cc1.O=C(O)C(=O)O [Compound 8, 1-(6-(4-tert-Butylphenoxy)hexyl)piperidine hydrogen oxalate]"
252 nM,28%,170 to 172 °C,"CC(C)(C)c1ccc(OCCCCCN2CCCCC2)cc1.O=C(O)C(=O)O [Compound 7, 1-(5-(4-tert-Butylphenoxy)pentyl)piperidine hydrogen oxalate]"
